pIC50: −log10 of the molar value.
Tests used:
[1] = molecular target: T1, human vitronectin receptor αvβ3 (Homo sapiens, UniProt P05106+P06756); test: Inhibition of the binding of kistrin to human vitronectin receptor (αvβ3 ELISA Test, K/VnR)
T1 construct: Human vitronectin receptor was obtained from the human placenta; from tissue; host or cells: human placenta
Excerpt: The inhibition of the binding of kistrin to human vitronectin receptor (VnR) described below is a test method by which, for example, the antagonistic action of the compounds according to the invention on the vitronectin receptor αvβ3 can be determined (αvβ3 ELISA Test; the test method is abbreviated as “K/VnR” in the listing of the test results).
Kistrin was purified according to the methods of Dennis et al., as described in Proc. Natl. Acad. Sci. USA 87 (1989) 2471-2475 and PROTEINS: Structure, Function and Genetics 15 (1993) 312-321.
Human vitronectin receptor was obtained from the human placenta according to the method of Pytela et al., Methods Enzymol. 144 (1987) 475. Human vitronectin receptor αvβ3 can also be obtained from some cell lines (for example from 293 cells, a human embryonic kidney cell line) which are co-transfected with DNA sequences for both subunits αv and β3 of the vitronectin receptor. The subunits are extracted with octyl glycoside and then chromatographed through concanavalin A, heparin-Sepharose and S-300.
Murine monoclonal antibodies which are specific for the β3 subunits of the vitronectin receptor were prepared according to the method of Newman et al., Blood (1985) 227-232, or by a similar process. The rabbit Fab 2 anti-mouse Fc conjugate to horseradish peroxidase (anti-mouse Fc HRP) was obtained from Pel Freeze (Catalog No. 715 305-1).
The ability of substances to inhibit the binding of kistrin to the vitronectin receptor can be determined using an ELISA test. For this purpose, Nunc 96-well microtiter plates were coated with a solution of kistrin (0.002 mg/ml) according to the method of Dennis et al., as described in PROTEINS: Structure, Function and Genetics 15 (1993) 312-321. The plates were then washed twice with PBS/0.05% Tween-20 and blocked by incubating (60 min) with bovine serum albumin (BSA, 0.5%, RIA grade or better) in buffer solution (Tris-HCl (50 mM), NaCl (100 mM), MgCl2 (1 mM), CaCl2 (1 mM), MnCl2 (1 mM), pH 7). Solutions of known inhibitors and of the test substances were prepared in concentrations from 2×10^−12 to 2×10^−6 mol/l in assay buffer (BSA (0.5%, RIA grade or better); Tris-HCl (50 mM), NaCl (100 mM), MgCl2 (1 mM), CaCl2 (1 mM), MnCl2 (1 mM), pH 7). The blocked plates were emptied, and in each case 0.025 ml of this solution which contained a defined concentration (2×10^−12 to 2×10^−6 mol/l ) either of a known inhibitor or of a test substance, were added to each well. 0.025 ml of a solution of the vitronectin receptor in assay buffer (0.03 mg/ml) was pipetted into each well of the plate and the plate was incubated at room temperature for 60-180 min on a shaker. In the meantime, a solution (6 ml/plate) of a murine monoclonal antibody specific for the β3 subunit of the vitronectin receptor was prepared in assay buffer (0.0015 mg/ml). A second rabbit antibody (0.001 ml of stock solution/6 ml of the murine monoclonal anti-β3 antibody solution) which was an anti-mouse Fc HRP antibody conjugate was added to this solution, and this mixture of murine anti-β3 antibody and rabbit anti-mouse Fc HRP antibody conjugate was incubated during the time of the receptor-inhibitor incubation. The test plates were washed four times with PBS solution which contained 0.05% Tween-20, and in each case 0.05 ml/well of the antibody mixture was pipetted into each well of the plate and incubated for 60-180 min. The plate was washed four times with PBS/0.05% Tween-20 and then developed with 0.05 ml/well of a PBS solution which contained 0.67 mg/ml of o-phenylenediamine and 0.012% of H2O2. Alternatively to this, o-phenylenediamine can be employed in a buffer (pH 5) which contains Na3PO4 and citric acid. The color development was stopped using 1 N H2SO4 (0.05 ml/well). The absorption for each well was measured at 492-405 nm and the data were evaluated by standard methods.

GP IIb/IIIa = GP IIb/IIIa (Homo sapiens, UniProt P05106+P08514); test: Fibrinogen-GP IIbIIIa Receptor ELISA Binding Assay (GP IIb/IIIa); details: read-out: GP IIb/IIla IC50
Sequence of GP IIb/IIIa (P08514 32-887 limits assumed): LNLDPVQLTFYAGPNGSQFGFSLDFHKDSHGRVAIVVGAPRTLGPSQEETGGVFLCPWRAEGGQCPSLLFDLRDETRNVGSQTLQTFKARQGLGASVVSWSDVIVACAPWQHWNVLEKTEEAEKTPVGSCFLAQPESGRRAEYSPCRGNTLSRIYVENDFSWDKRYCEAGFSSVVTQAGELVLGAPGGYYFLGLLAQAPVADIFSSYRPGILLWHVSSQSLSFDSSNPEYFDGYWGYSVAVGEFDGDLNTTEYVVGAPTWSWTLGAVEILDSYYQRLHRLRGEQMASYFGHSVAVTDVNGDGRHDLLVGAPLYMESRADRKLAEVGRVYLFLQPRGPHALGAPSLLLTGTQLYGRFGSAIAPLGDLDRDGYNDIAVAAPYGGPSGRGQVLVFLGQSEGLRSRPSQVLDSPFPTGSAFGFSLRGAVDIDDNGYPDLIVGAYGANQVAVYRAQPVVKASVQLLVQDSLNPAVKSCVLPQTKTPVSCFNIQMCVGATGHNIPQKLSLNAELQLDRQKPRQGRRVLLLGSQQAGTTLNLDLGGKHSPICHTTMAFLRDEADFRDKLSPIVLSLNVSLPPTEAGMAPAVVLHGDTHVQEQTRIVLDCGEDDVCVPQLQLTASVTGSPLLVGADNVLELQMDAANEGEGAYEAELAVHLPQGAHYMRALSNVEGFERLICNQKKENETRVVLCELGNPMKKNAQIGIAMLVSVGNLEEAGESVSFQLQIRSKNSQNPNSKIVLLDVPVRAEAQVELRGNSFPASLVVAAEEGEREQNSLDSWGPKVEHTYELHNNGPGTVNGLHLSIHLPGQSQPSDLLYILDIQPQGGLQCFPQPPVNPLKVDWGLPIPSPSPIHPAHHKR
Sequence of GP IIb/IIIa (P08514 891-1039 partner limits assumed): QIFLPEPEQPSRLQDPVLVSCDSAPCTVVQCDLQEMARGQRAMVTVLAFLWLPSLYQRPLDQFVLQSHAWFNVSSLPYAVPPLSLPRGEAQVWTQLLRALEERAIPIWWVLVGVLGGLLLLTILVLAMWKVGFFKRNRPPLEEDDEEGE
Sequence of GP IIb/IIIa (P05106 27-788): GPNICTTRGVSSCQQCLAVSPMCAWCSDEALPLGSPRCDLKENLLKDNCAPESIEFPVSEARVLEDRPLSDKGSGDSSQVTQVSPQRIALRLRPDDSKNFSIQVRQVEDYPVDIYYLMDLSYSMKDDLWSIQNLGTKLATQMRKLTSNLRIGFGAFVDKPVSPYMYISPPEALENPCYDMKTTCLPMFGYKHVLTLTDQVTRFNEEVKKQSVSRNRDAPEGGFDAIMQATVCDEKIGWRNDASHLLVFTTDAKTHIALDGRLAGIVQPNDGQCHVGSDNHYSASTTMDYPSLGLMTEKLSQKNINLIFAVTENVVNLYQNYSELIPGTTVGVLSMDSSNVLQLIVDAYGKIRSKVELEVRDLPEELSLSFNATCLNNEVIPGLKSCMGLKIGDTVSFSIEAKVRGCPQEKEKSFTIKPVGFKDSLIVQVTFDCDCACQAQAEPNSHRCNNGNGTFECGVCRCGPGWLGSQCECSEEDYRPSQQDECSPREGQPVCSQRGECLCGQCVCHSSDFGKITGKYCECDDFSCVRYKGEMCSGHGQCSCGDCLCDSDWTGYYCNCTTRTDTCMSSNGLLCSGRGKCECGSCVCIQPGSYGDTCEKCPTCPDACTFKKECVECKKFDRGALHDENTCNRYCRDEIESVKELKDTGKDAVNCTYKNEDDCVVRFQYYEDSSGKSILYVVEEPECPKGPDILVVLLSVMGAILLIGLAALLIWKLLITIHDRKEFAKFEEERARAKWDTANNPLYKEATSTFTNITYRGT
Protocol: The test for inhibition of GP IIb/IIIa (“Fibrinogen-GP IIbIIIa Receptor ELISA Binding Assay”) was carried out as described in U.S. Pat. No. 5,403,836 which is incorporated herein by reference (the test method is abbreviated as “GP IIb/IIa” in the listing of the test results).

T1 sequence (P06756 31-889 limits assumed): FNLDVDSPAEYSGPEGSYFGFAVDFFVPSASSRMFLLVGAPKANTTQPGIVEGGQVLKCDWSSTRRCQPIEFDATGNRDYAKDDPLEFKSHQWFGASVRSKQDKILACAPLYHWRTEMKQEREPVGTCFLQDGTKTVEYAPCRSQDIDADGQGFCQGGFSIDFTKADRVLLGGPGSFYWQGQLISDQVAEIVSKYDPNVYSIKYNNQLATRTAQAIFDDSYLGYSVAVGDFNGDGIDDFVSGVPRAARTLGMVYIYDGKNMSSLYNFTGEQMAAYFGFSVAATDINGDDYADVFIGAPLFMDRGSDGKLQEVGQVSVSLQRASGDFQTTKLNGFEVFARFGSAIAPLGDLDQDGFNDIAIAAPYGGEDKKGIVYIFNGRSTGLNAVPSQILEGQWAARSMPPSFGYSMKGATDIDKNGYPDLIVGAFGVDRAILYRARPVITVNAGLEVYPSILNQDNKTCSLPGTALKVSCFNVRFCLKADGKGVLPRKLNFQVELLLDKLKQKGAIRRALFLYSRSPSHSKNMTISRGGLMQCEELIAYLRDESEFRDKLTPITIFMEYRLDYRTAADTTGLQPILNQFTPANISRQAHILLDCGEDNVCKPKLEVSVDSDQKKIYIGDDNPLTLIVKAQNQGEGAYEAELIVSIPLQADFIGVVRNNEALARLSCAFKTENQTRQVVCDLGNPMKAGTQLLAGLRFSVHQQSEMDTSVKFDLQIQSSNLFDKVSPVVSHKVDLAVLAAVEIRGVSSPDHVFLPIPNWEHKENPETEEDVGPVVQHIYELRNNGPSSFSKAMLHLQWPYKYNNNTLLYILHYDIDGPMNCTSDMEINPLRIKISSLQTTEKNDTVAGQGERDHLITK
T1 sequence (P06756 891-1048 partner limits assumed): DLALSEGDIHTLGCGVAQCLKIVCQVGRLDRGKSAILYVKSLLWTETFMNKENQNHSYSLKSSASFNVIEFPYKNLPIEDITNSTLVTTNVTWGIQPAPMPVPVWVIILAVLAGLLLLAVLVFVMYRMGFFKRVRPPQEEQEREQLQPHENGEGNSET
T1 sequence (P05106 27-788): as the sequence (P05106 27-788) above

SMILES | pIC50 [1] | pIC50 (GP IIb/IIIa)
O=C(CCCOc1ccc(C[C@H](NS(=O)(=O)c2cccc3ccccc23)C(=O)O)cc1)NC1=NCCCN1 [Example 2, (2S)-2-(Naphthalene-1-sulfonylamino)-3-{4-[3-(1,4,5,6-tetrahydropyrimidin-2-ylcarbamoyl)-propoxy]-phenyl}-propionic acid] | 8.57 | 6.28
O=C(CCCOc1ccc(C[C@H](NS(=O)(=O)c2ccc(Cl)cc2)C(=O)O)cc1)NC1=NCCCN1 [Example 3, (2S)-2-(4-Chlorobenzenesulfonylamino)-3-{4-[3-(1,4,5,6-tetrahydropyrimidin-2-ylcarbamoyl)-propoxy]-phenyl}-propionic acid] | 8.52 | 6.12
O=C(CCCOc1ccc(C[C@H](NS(=O)(=O)c2ccccc2)C(=O)O)cc1)NC1=NCCCN1 [Example 4, (2S)-2-Benzenesulfonylamino-3-{4-[3-(1,4,5,6-tetrahydropyrimidin-2-ylcarbamoyl)-propoxy]-phenyl}-propionic acid] | 8.55 | 6.39
O=C(CCCOc1ccc(C[C@H](NS(=O)(=O)c2ccc(C(F)(F)F)cc2)C(=O)O)cc1)NC1=NCCCN1 [Example 5, (2S)-3-{4-[3-(1,4,5,6-Tetrahydropyrimidin-2-ylcarbamoyl)-propoxy]-phenyl}-2-(4-trifluoromethylbenzenesulfonylamino)-propionic acid] | 8.46 | 5.50
O=C(CCCOc1ccc(C[C@H](NS(=O)(=O)c2ccc(Br)cc2)C(=O)O)cc1)NC1=NCCCN1 [Example 7, (2S)-2-(4-Bromobenzenesulfonylamino)-3-{4-[3-(1,4,5,6-tetrahydropyrimidin-2-ylcarbamoyl)-propoxy]-phenyl}-propionic acid] | 8.46 | 6.02
CCCCCCCCS(=O)(=O)N[C@@H](Cc1ccc(OCCCC(=O)NC2=NCCCN2)cc1)C(=O)O [Example 10, (2S)-2-(Octane-1-sulfonylamino)-3-{4-[3-(1,4,5,6-tetrahydropyrimidin-2-ylcarbamoyl)-propoxy]-phenyl}-propionic acid] | 8.12 | 5.62

The remaining lines, values ahead:

pIC50 [1] | pIC50 (GP IIb/IIIa) | SMILES
8.12 | 6.59 | O=C(CCCOc1ccc(C[C@H](NS(=O)(=O)c2ccc3ccccc3c2)C(=O)O)cc1)NC1=NCCCN1 [Example 1, (2S)-2-(Naphthalene-2-sulfonylamino)-3-{4-[3-(1,4,5,6-tetrahydropyrimidin-2-ylcarbamoyl)-propoxy]-phenyl}-propionic acid]
8.55 | 6.14 | Cc1ccc(S(=O)(=O)N[C@@H](Cc2ccc(OCCCC(=O)NC3=NCCCN3)cc2)C(=O)O)cc1 [Example 6, (2S)-3-{4-[3-(1,4,5,6-Tetrahydropyrimidin-2-ylcarbamoyl)-propoxy]-phenyl}-2-(toluene4-sulfonylamino)-propionic acid]
8.60 | 6.48 | O=C(CCCOc1ccc(C[C@H](NS(=O)(=O)c2cccs2)C(=O)O)cc1)NC1=NCCCN1 [Example 8, (2S)-3-{4-[3-(1,4,5,6-Tetrahydropyrimidin-2-ylcarbamoyl)-propoxy]-phenyl}-2-(thiophene-2-sulfonylamino)-propionic acid]
8.28 | 5.68 | CCCCS(=O)(=O)N[C@@H](Cc1ccc(OCCCC(=O)NC2=NCCCN2)cc1)C(=O)O [Example 9, (2S)-2-(Butane-1-sulfonylamino)-3-{4-[3-(1,4,5,6-tetrahydropyrimidin-2-ylcarbamoyl)-propoxy]-phenyl}-propionic acid]

Source: patent US6340679B1, “Guanidine derivatives as inhibitors of cell adhesion” (Aventis Pharma Deutschland GmbH, priority 1999, dated 2002)
